Test results from ChEMBL document CHEMBL4806962, “Methods and Compositions for Treating Cancer” (2020).
The source made the active and inactive calls. No cut-off for these calls is given here.

Key:
PBMC [1] = test: Effects of compound on IL-2 production in anti-CD3/CD28-stimulated human PBMCs assessed as increase in IL-2 level after 2 days by ELISA; format: functional, tissue-based; conditions: dose 1-10 µM, time 2.0 day
PBMC [2] = test: Effects of compound on INF-gamma production in anti-CD3/CD28-stimulated human PBMCs assessed as increase in INF-gamma level after 2 days by ELISA; format: functional, tissue-based; conditions: dose 1-10 µM, time 2.0 day
PBMC [3] = test: Effects of compound on IL-17A production in anti-CD3/CD28-stimulated human PBMCs assessed as fold decrease in IL-17A level at 30 uM after 2 days by ELISA; format: functional, tissue-based; conditions: time 2.0 day
[4] = (§1) Ratio of FC for induction of IL-2 production in anti-CD3/CD28-stimulated human PBMCs at 1 uM after 24 hrs in presence of ZM-241385 and MRS-1754 to FC for induction of IL-2 production in anti-CD3/CD28-stimulated human PBMCs at 1 uM after 24 hrs in presence of ZM-241385 and absence of MRS-1754; format: functional, PBMC
[5] = molecular target: T1, Probable G-protein coupled receptor 174 (Homo sapiens, UniProt Q9BXC1); test: Antagonist activity at GPR174 (unknown origin) expressed in HEK293 cells assessed as inhibition of PS-induced GPR174 signaling incubated for 15 mins by GloSensor assay; format: functional, cell-based; conditions: filed as antagonist
T1 sequence (Q9BXC1 whole entry): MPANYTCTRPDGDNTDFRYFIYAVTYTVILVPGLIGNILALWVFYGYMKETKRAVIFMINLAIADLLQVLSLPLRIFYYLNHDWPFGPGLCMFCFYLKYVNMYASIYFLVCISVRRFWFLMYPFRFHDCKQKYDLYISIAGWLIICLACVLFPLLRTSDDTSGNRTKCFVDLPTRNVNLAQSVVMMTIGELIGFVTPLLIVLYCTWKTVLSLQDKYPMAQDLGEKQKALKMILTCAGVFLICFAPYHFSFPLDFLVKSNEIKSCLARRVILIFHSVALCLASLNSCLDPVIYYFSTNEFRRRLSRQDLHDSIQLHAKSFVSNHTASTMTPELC

PBMC [6] = test: Effect of compound on human PBMCs assessed as reduction in AREG expression in CD4-positive T cells after 1 day by flow cytometric analysis; format: functional, cell-based; conditions: dose 1.25-5 µM
PBMC [7] = test: Effect of compound on human PBMCs assessed as reduction in TGIT expression in CD8-positive T cells after 1 day by flow cytometric analysis; format: functional, cell-based; conditions: dose 1.25-5 µM
PBMC [8] = test: Effect of compound on human PBMCs assessed as reduction in PD-L1 expression in CD4-positive T cells after 1 day by flow cytometric analysis; format: functional, cell-based; conditions: dose 1.25-5 µM
PBMC [9] = test: Effect of compound on human PBMCs assessed as reduction in CTLA4 expression in memory non-Treg cells after 1 day by flow cytometric analysis; format: functional, cell-based; conditions: dose 0.19-6 µM
PBMC [10] = test: Effect of compound on human PBMCs assessed as reduction in CTLA4 expression in non-Treg cells after 1 day by flow cytometric analysis; format: functional, cell-based; conditions: dose 0.19-6 µM
PBMC [11] = test: Effect of compound on human PBMCs assessed as reduction in CTLA4 expression in naive Treg cells after 1 day by flow cytometric analysis; format: functional, cell-based; conditions: dose 0.19-6 µM
[12] = Effects of compound on anti-CD3/CD28-stimulated human PBMCs assessed as non-T cells population at 10 uM after 2 days by flow cytometric analysis; format: functional, PBMC; conditions: time 2 day
[13] = Effects of compound on anti-CD3/CD28-stimulated human PBMCs assessed as CD8-positive cells population at 10 uM after 2 days by flow cytometric analysis; format: functional, PBMC; conditions: time 2 day
[14] = Effects of compound on anti-CD3/CD28-stimulated human PBMCs assessed as CD4-positive cells population at 10 uM after 4 hrs by flow cytometric analysis; format: functional, PBMC
[15] = molecular target: T1, Probable G-protein coupled receptor 174; test: Inverse agonist activity at human GPR174 assessed as fold decrease in Gs signalling activity by CRA; format: functional; conditions: filed as inverse agonist
[16] = Effects of compound on anti-CD3/CD28-stimulated human PBMCs assessed as non-T cells population at 10 uM after 4 hrs by flow cytometric analysis; format: functional, PBMC
PBMC [17] = test: Effects of compound on TNF-alpha production in anti-CD3/CD28-stimulated human PBMCs assessed as fold increase in TNF-alpha level at 30 uM after 2 days by ELISA; format: functional, tissue-based; conditions: time 2.0 day
[18] = molecular target: T1, Probable G-protein coupled receptor 174; test: Inverse agonist activity at GPR174 in anti-CD3/CD28-stimulated human PBMCs assessed as increase in FoxP3-positive Helios-negative T cells at 100 uM after 3 days by flow cytometric analysis; format: functional, tissue-based; conditions: PBMC, filed as inverse agonist, time 3.0 day
[19] = molecular target: T1, Probable G-protein coupled receptor 174; test: Inverse agonist activity at GPR174 in anti-CD3/CD28-stimulated human PBMCs assessed as reduction in FoxP3-positive Helios-positive nTreg cells after 7 days by flow cytometric analysis; format: functional, tissue-based; conditions: PBMC, filed as inverse agonist, dose 3-30 µM, time 7.0 day
[20] = molecular target: T1, Probable G-protein coupled receptor 174; test: Inverse agonist activity at GPR174 in anti-CD3/CD28-stimulated human PBMCs assessed as reduction in FoxP3-positive Helios-positive nTreg cells at 30 uM after 7 days by flow cytometric analysis; format: functional, tissue-based; conditions: PBMC, filed as inverse agonist, time 7.0 day
PBMC [21] = test: Effects of compound on IL-2 production in anti-CD3/CD28-stimulated human PBMCs assessed as increase in IL-2 level at 30 uM after 2 days by ELISA; format: functional, tissue-based; conditions: time 2.0 day
PBMC [22] = test: Effects of compound on IL-6 production in anti-CD3/CD28-stimulated human PBMCs assessed as fold increase in IL-6 level at 30 uM after 2 days by ELISA; format: functional, tissue-based; conditions: time 2.0 day
PBMC [23] = test: Effects of compound on IL-10 production in anti-CD3/CD28-stimulated human PBMCs assessed as fold increase in IL-10 level at 30 uM after 2 days by ELISA; format: functional, tissue-based; conditions: time 2.0 day
[24] = Induction of TNF production in anti-CD3/CD28-stimulated human PBMCs assessed as fold increase in TNF level at 1 to 2 uM after 24 hrs in presence of A2aR inhibitor ZM-241385 by ELISA; format: functional, PBMC; conditions: dose 1-2 µM
[25] = as §1, with “INF-gamma” for “IL-2”; format: functional, PBMC
[26] = Ratio of FC for induction of INF-gamma production in anti-CD3/CD28-stimulated human PBMCs at 1 uM after 24 hrs in presence of PBF-509 and MRS-1754 to FC for induction of INF-gamma production in anti-CD3/CD28-stimulated human PBMCs at 1 uM after 24 hrs in presence of PBF-509 and absence of MRS-1754; format: functional, PBMC
[27] = Induction of IL-2 production in anti-CD3/CD28-stimulated human PBMCs assessed as fold increase in IL-2 level at 1 uM after 24 hrs in presence of 0.1 uM A2aR inhibitor PBF-509 by ELISA; format: functional, PBMC
[28] = Induction of TNF production in anti-CD3/CD28-stimulated human PBMCs assessed as fold increase in TNF level at 1 uM after 24 hrs in presence of 0.75 ug/ml ADA by ELISA; format: functional, PBMC
CD4+ve Th = test: Reduction in AREG expression in human CD4-positive T-cells at 10 uM in presence of A2aR inhibitor ZM-241385; format: functional
Splenocyte [29] = test: Effects of compound on IL-2 production in anti-CD3/CD28-stimulated wild-type mouse spleenocytes assessed as fold increase in IL-2 level at 0.3 to 1 uM after 2 days; format: functional; conditions: dose 0.3-1 µM; time 2 day
Splenocyte [30] = test: Effects of compound on IL-2 production in anti-CD3/CD28-stimulated GPR174 knock out mouse spleenocytes assessed as fold increase in IL-2 level at 0.3 uM after 2 days in presence of NECA; format: functional, cell-based; conditions: time 2.0 day

SMILES: CC1CCN(c2cc(N3CCN(S(=O)(=O)c4ccccc4)CC3)c([N+](=O)[O-])cc2F)CC1
- Activity (PBMC [1]): Dose-Dependent Effect
- Activity (PBMC [2]): Dose-Dependent Effect
- Activity (PBMC [3]): Active
- Ratio [4]: 0.7
- Activity [5]: Dose-Dependent Effect
- Activity (PBMC [6]): Dose-Dependent Effect
- Activity (PBMC [7]): Dose-Dependent Effect
- Activity (PBMC [8]): Dose-Dependent Effect
- Activity (PBMC [9]): Dose-Dependent Effect
- Activity (PBMC [10]): Dose-Dependent Effect
- Activity (PBMC [11]): Dose-Dependent Effect
- Activity [12]: 33.1%
- Activity [13]: 27.5%
- Activity [14]: 46.2%
- fold change (FC) [15]: 0.2
- Activity [16]: 33.9%
- Activity (PBMC [17]): Active
- Activity [18]: Active
- Activity [19]: Dose-Dependent Effect
- Activity [20]: Active
- Activity (PBMC [21]): Active
- Activity (PBMC [22]): Active
- Activity (PBMC [23]): Active
- fold change (FC) [24]: 8
- Ratio [25]: 1
- Ratio [26]: 1
- fold change (FC) [27]: 1.9
- fold change (FC) [28]: 1.9
- Activity (CD4+ve Th): Active
- fold change (FC) (Splenocyte [29]): 10
- Activity (Splenocyte [30]): inactive
